Consider five compounds from patent publication US7084145B2, “Triazole compounds useful in therapy” (Pfizer Inc., priority 2002, dated 2006).

One data set concerns the target T1, human V1A receptor (Homo sapiens, UniProt P37288).
T1 construct: host or cells: CHO cells (CHO-hV1A), membrane preparation
As to the kind of experiment: V1A filter binding assay ([3H]-AVP binding to CHO-hV1A membranes). The settings on record: screen 1.0, [3H]-AVP displacement. As to the method: 1.0 V1A Filter Binding Assay
Receptor binding assays were performed on cellular membranes prepared from CHO cells stably expressing the human V1A receptor, (CHO-hV1A). The CHO-hV1A cell line was kindly provided under a licensing agreement by Marc Thibonnier, Dept. of Medicine, Case Western Reserve University School of Medicine, Cleveland, Ohio. CHO-hV1A cells were routinely maintained at 37° C. in humidified atmosphere with 5% CO2 in DMEM/Hams F12 nutrient mix supplemented with 10% fetal bovine serum, 2 mM L-glutamine, 15 mM HEPES and 400 μg/ml G418. For bulk production of cell pellets, adherent CHO-hV1A cells were grown to confluency of 90–100% in 850 cm^2 roller bottles containing a medium of DMEM/Hams F12 Nutrient Mix supplemented with 10% fetal bovine serum, 2 mM L-glutamine and 15 mM HEPES. Confluent CHO-hV1A cells were washed with phosphate-buffered saline (PBS), harvested into ice cold PBS and centrifuged at 1,000 rpm. Cell pellets were stored at −80° C. until use. Cell pellets were thawed on ice and homogenised in membrane preparation buffer consisting of 50 mM Tris-HCl, pH 7.4, 5 mM MgCl2 and supplemented with a protease inhibitor cocktail, (Roche). The cell homogenate was centrifuged at 1000 rpm, 10 min, 4° C. and the supernatant was removed and stored on ice. The remaining pellet was homogenised and centrifuged as before. The supernatants were pooled and centrifuged at 25,000×g for 30 min at 4° C. The pellet was resuspended in freezing buffer consisting of 50 mM Tris-HCl, pH 7.4, 5 mM MgCl2 and 20% glycerol and stored in small aliquots at −80° C. until use. Protein concentration was determined using Bradford reagent and BSA as a standard.
Protein linearity followed by saturation binding studies were performed on each new batch of membrane. Membrane concentration was chosen that gave specific binding on the linear portion of the curve.
Compounds were tested for their effects on [^3H]-AVP binding to CHO-hV1A membranes, (^3H-AVP; specific activity 65.5 Ci/mmol; NEN Life Sciences). Compounds were solubilised in dimethylsulfoxide (DMSO) and diluted to working concentration of 10% DMSO with assay buffer containing 50 mM Tris-HCL pH 7.4, 5 mM MgCl2 and 0.05% BSA. […] The plates were sealed and counted on a TopCount Microplate Scintillation Counter (Packard Instruments). […] The radioligand binding data was analysed using a four parameter logistic equation with the min forced to 0%. […] Specific binding was calculated by subtracting the mean NSB cpm from the mean Total cpm. […] The inhibitory dissociation constant (Ki) was calculated using the Cheng-Prusoff equation: Ki=IC50/(1+[L]/Kd) where [L] is the concentration of ligand present in the well and Kd is the dissociation constant of the radioligand obtained from Scatchard plot analysis.

T1 sequence (P37288 whole entry): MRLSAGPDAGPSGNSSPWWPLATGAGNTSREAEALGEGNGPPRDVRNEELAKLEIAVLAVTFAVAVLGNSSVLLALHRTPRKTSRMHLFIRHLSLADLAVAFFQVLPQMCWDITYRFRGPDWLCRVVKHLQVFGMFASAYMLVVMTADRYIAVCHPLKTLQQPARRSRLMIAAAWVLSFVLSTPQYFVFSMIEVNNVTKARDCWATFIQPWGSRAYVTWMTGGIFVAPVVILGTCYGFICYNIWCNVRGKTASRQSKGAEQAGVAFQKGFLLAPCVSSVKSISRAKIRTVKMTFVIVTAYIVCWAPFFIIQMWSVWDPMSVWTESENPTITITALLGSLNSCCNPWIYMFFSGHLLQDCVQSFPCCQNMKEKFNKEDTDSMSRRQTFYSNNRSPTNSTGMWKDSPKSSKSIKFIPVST

With `Cc1nnc(C2CCN(c3cnccn3)CC2)n1Cc1ccccc1` [Example 23, 2-[4-(4-Benzyl-5-methyl-4H-[1,2,4]triazol-3-yl)-piperidin-1-yl]-pyrazine], the melting point (usually the temperature of the solid-liquid transition) was 191.1 °C.

Turning to `C[C@@H](c1ccccc1)n1c(CN2CCCCC2)nnc1C1CCN(c2ccccn2)CC1` [Example 25, (S)-4-[4-(1-Phenyl-ethyl)-5-piperidin-1-ylmethyl-4H-[1,2,4]triazol-3-yl]-3,4,5,6-tetrahydro-2H-[1,2′]bipyridinyl], the Ki (commonly the equilibrium dissociation constant of an inhibitor or competing ligand from its target) on human V1A receptor worked out at 16.1 nM.

`COC1CCN(Cc2nnc(C3CCN(c4ccccn4)CC3)n2Cc2ccccc2)CC1` [Example 26, 4-[4-Benzyl-5-(4-methoxy-piperidin-1-ylmethyl)-4H-[1,2,4]triazol-3-yl]-3,4,5,6-tetrahydro-2H-[1,2′]bipyridinyl] came in with a Ki on human V1A receptor of 4.5 nM. This Ki lies about 3.6-fold lower than the previous one.

Consider `c1ccc(COCc2nnc(C3CCN(c4ccccn4)CC3)n2Cc2ccccc2)cc1` [Example 17, 4-(4-Benzyl-5-benzyloxymethyl-4H-[1,2,4]triazol-3-yl)-3,4,5,6-tetrahydro-2H-[1,2′]bipyridinyl], for which the Ki on human V1A receptor was determined as 4.67 nM.

Turning to `c1ccc(Cn2c(CN3CCCCC3)nnc2C2CCN(c3ccccn3)CC2)cc1` [Example 24, 4-(4-Benzyl-5-piperidin-1-ylmethyl-4H-[1,2,4]triazol-3-yl)-3,4,5,6-tetrahydro-2H-[1,2′]bipyridinyl], on human V1A receptor, the affinity, expressed as Ki, was 12.1 nM. Compared with the last compound, the Ki is about 2.6-fold higher.
